Several values for one entry are separate records, joined by “and”; a condition that tells them apart may be missing. Identical values can stand only once. Entries after “also recorded” stand apart in the source; their conditions may differ.
What was measured:
[1] = target: ABCB1 (P-glycoprotein) in Colo 320 colonic adenocarcinoma cells (Homo sapiens, UniProt P08183); assay: ABCB1 inhibition, rhodamine 123 accumulation by flow cytometry; conditions: for FAR (fluorescence activity ratio): rhodamine 123, FAR above 2 considered effective
Chain of ABCB1 (P-glycoprotein) in Colo 320 colonic adenocarcinoma cells (P08183 whole entry): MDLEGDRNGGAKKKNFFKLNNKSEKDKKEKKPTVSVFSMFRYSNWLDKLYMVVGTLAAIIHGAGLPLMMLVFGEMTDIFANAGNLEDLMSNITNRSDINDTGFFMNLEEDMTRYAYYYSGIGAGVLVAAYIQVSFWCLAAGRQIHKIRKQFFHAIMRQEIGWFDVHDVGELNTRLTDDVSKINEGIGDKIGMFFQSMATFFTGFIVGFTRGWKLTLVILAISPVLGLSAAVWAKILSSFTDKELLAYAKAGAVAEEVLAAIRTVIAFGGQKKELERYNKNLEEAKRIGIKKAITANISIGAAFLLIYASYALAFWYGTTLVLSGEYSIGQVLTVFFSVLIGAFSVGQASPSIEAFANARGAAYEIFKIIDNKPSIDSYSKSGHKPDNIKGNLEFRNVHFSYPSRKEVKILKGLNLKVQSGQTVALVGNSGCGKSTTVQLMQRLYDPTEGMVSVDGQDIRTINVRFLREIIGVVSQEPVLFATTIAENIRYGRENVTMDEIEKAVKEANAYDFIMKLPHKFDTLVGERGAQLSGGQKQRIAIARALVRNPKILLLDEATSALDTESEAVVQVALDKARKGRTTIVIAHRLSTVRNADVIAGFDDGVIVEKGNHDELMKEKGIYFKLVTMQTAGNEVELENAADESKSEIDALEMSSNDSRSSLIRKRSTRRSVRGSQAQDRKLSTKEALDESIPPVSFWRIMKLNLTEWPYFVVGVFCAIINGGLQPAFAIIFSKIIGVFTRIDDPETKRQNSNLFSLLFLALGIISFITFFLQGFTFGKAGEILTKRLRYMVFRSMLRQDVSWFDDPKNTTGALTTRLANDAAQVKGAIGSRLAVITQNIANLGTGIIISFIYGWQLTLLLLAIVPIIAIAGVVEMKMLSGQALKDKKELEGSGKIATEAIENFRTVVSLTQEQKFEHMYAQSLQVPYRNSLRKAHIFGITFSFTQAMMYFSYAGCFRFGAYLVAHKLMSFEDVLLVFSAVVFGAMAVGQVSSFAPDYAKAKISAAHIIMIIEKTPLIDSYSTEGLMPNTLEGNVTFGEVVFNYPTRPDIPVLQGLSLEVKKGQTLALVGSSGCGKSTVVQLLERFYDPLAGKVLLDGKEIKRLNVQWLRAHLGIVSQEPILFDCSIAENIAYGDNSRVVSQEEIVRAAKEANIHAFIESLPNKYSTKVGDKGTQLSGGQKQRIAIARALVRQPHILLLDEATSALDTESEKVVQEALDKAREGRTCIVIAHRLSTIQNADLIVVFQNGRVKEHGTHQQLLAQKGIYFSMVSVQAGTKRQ
Experimental: The inhibition of the ABCB1 multidrug efflux pump ABCB1 by the tested compounds was evaluated using flow cytometry, measuring the retention of rhodamine 123 by ABCB1 (P-glycoprotein) in Colo 320 colonic adenocarcinoma cells. Briefly, the cell number of colonic adenocarcinoma cells were adjusted to 2 × 10^6 cells/mL, re-suspended in serum-free RPMI-1640 medium in the case of colonic adenocarcinoma cells, and distributed in 0.5 mL aliquots into Eppendorf centrifuge tubes. The tested compounds were added at different concentrations (0.2 and 2 µM; from 1 and 10 mM stock solutions, respectively), and the samples were incubated for 10 min at room temperature. Tariquidar was applied as the positive control (0.2 µM final concentration), and DMSO was used as the solvent control (at 2 v/v%). Next, 10 µL (5.2 µM final concentration) of the fluorochrome rhodamine 123 (Sigma, St. Louis, MO, USA) was added to the samples and the cells were incubated for 20 min at 37 °C. After the incubation period, the cells were washed twice and re-suspended in 0.5 mL PBS for analysis. The fluorescence of the gated cell population was measured with a Partec CyFlow® flow cytometer (Partec, Münster, Germany). The percentage of the mean fluorescence intensity was calculated for the treated MDR cells as compared with the untreated cells. The results were obtained from a representative flow cytometry experiment in which at least 20,000 individual cells of the overall population were evaluated for the rhodamine 123 retained inside the cells. The fluorescence activity ratio (FAR) was calculated based on the following equation, which relates the measured fluorescence values: FAR=Colo320treated / Colo320control/Colo205treated / Colo205control
The parameters evaluated from flow cytometry experiments were: Forward Scatter Count (FSC, provides information about cell size); Side Scatter Count (SSC, proportional to cell granularity or internal complexity); FL-1 (Mean fluorescence of the cells), and Fluorescence Activity Ratio (FAR), which was calculated by the equation given above.

[2] = tested on: MDR Colo 320 adenocarcinoma cells; assay: Apoptosis induction (Annexin V-FITC / propidium iodide); format: cell-based, human; conditions: 2 µM; for Cell Death (%) Treated Sample-Untreated Sample / Early Apoptosis (%) Treated Sample-Untreated Sample / Late Apoptosis (%) Treated Sample-Untreated Sample: 3 h induction; for Apoptosis Quotient (%): total apoptotic events relative to reference M627 (20 µM)
Experimental: The assay was carried out using an Annexin V-FITC Apoptosis Detection Kit Cat. No. PF 032 from Calbiochem (EMD Biosciences. Inc. La Jolla. CA), according to the manufacturer's instructions. […] The cell suspension was distributed into 1 mL aliquots (1 × 10^6 cells) into a 24-well microplate and incubated overnight at 37 °C, with 5% CO2. On the following day, the medium was removed and a fresh medium was added to the cells. The cells were incubated in the presence of Se-compounds for 3 h at 37 °C. […] After a 3 h induction period, the culture medium was removed, the cells were washed with PBS, and a fresh medium was added to the cells. The 24-well plates were incubated overnight at 37 °C, with 5% CO2. After the incubation, the supernatant was collected in a microfuge tube and 200 μL of 0.25 trypsin (Trypsin-Versene) was added to the wells until the cells detached from the surfaces of the wells. The cells were centrifuged at 2000× g for 2 min at room temperature, the supernatant was removed, and the cells were re-suspended in fresh serum-free medium. After this procedure, apoptosis assay was carried out according to the rapid protocol of the kit using Annexin V-FITC and propidium iodide staining. […] The data were analysed by FlowJo^TM software (BD Biosciences, San Jose, NJ, USA).

[3] = target: T1, recombinant human P-gp membranes (Homo sapiens, UniProt P08183); assay: P-gp ATPase activity assay (Pgp-Glo); format: biochemical; conditions: 25 µM; relative to basal activity
T1 construct: purchased Promega
T1 sequence (P08183 whole entry): as above
Experimental: P-glycoprotein ATPase activity was determined using the Pgp-Glo^TM Assay System (Promega, WI, USA). The assay was performed according to the manufacturer’s instructions. […] DMSO at 2% was applied as a solvent control. […] The reaction was stopped after adding 50 µL of ATP Detection Reagent. Then, the samples and controls were incubated at room temperature for 20 min. The emitted luciferase-generated luminescent signal was measured in a CLARIOstar Plus plate reader (BMG Labtech, UK) at 580 nm. The relative ATPase activity was calculated based on the ratio between the luminescence measured of the P-gp ATPase activity of each compound and the basal P-gp ATPase activity according to the following equation: Relative ATPase activity=Lumtreated−Lumuntreated/LumNa3VO4 − Lumuntreated
The effect of the tested compounds was evaluated according to the instructions of the manufacturer (Table 2).

| SMILES | FSC (Forward Scatter Count) ([1]; 0.2 µM) | SSC (Side Scatter Count) ([1]; 0.2 µM) | FAR (fluorescence activity ratio) ([1]; 0.2 µM) | FSC (Forward Scatter Count) ([1]; 2 µM) | SSC (Side Scatter Count) ([1]; 2 µM) | FAR (fluorescence activity ratio) ([1]; 2 µM) | Total Apoptotic Events (Early + Late, %) [2] [%] | Cell Death (%) Treated Sample-Untreated Sample [2] [%] | Early Apoptosis (%) Treated Sample-Untreated Sample [2] [%] | Late Apoptosis (%) Treated Sample-Untreated Sample [2] [%] | Apoptosis Quotient (%) [2] [%] | Effect on P-gp ATPase activity [3] | melting point [°C] |
| --- | --- | --- | --- | --- | --- | --- | --- | --- | --- | --- | --- | --- | --- |
| CC(=O)C[Se]C(=O)c1ccc(C(C)(C)C)cc1 [K7, Se-(2-Oxopropyl) 4-(Tert-butyl)benzoselenoate] | 1889 | 938 | 1.53 | 1920 | 1045 | 40.38 and 40.39 | 33.6 | 0.10 | 6.1 | 27.5 | 68.0 | inhibited the ATPase activity; also recorded: inhibitors of P-gp ATPase activity |  |
| CC(=O)C[Se]C(=O)c1ccccc1F [K2, Se-(2-Oxopropyl) 2-Fluorobenzoselenoate] | 1916 | 1061 | 1.41 | 1945 | 1156 | 37.35 | 34.2 | 0.95 | 0.3 | 33.9 | 69.2 |  |  |
| CC(=O)C[Se]C(=O)c1cccc(C(F)(F)F)c1 [K5, Se-(2-Oxopropyl) 3-(Trifluoromethyl)benzoselenoate] | 1982 | 1096 | 1.84 | 1949 | 1053 | 32.61 and 32.62 | 32.7 | 1.35 | 1.8 | 30.9 | 66.2 | milder stimulation |  |
| CC(=O)C[Se]C(=O)c1ccc(Br)cc1 [K3, Se-(2-Oxopropyl) 4-Bromobenzoselenoate] | 1706 | 982 | 3.99 | 2040 | 1031 | 39.17 | 44.2 | 0.00 | 18.6 | 25.6 | 89.5 | stimulated the P-gp ATPase with a comparable intensity to the reference verapamil |  |
| N#CC[Se]C(=O)c1ccccc1C(F)(F)F [N4, Se-(Cyanomethyl) 2-(Trifluoromethyl)benzoselenoate] |  |  |  |  |  |  |  |  |  |  |  |  | 65 to 67 |
| CC(=O)C[Se]C(=O)c1ccc(F)c(Cl)c1 [K6, Se-(2-Oxopropyl) 3-Chloro-4-fluorobenzoselenoate] | 1996 | 873 | 1.48 | 1833 | 1043 | 29.4 and 29.42 | 32.3 | 0.17 | 4.5 | 27.8 | 65.4 |  |  |
| CC(=O)C[Se]C(=O)c1cccs1 [K1, Se-(2-Oxopropyl) Thiophene-2-carboselenoate] | 2144 | 989 | 1.37 | 1866 | 1067 | 45.73 | 32.6 | 2.15 | 3.7 | 28.9 | 66.0 | inhibited the ATPase activity; also recorded: inhibitors of P-gp ATPase activity |  |
| N#CC[Se]C(=O)c1cc(C(F)(F)F)cc(C(F)(F)F)c1 [N7, Se-(Cyanomethyl) 3,5-Bis(trifluoromethyl)benzoselenoate] |  |  |  |  |  |  |  |  |  |  |  |  | 63 to 65 |
| CC(=O)C[Se]C(=O)c1ccccc1C(F)(F)F [K4, Se-(2-Oxopropyl) 2-(Trifluoromethyl)benzoselenoate] | 1808 | 861 | 1.76 | 1830 | 1008 | 4.99 | 19.5 | 5.95 | 3.4 | 16.1 | 39.5 |  |  |
| CC(=O)C[Se]C(=O)c1cc(F)c(F)cc1F [K8, Se-(2-Oxopropyl) 2,4,5-Trifluorobenzoselenoate] | 1804 | 853 | 3.38 | 1990 | 1131 | 36.09 | 31.6 | 0.85 | 4.9 | 26.7 | 64.0 | milder inhibition of the ATPase; also recorded: inhibitors of P-gp ATPase activity |  |
| N#CC[Se]C(=O)c1ccc(Br)cc1 [N3, Se-(Cyanomethyl) 4-Bromobenzoselenoate] |  |  |  |  |  |  |  |  |  |  |  |  | 105 to 107 |
